{
  "source": "patent US20190175560A1",
  "about": "“MEBENDAZOLE CANCER THERAPIES AND METHODS OF USE” (Shepherd Therapeutics, Inc., priority 2017, published 2019)",
  "key": {"A2780cis cells": {"test_system": "A2780cis cells", "test": "MBZ cell viability IC50 (CellTiter Glo)", "format": "cell-based", "conditions": "72 hours", "procedure": "(§1) The effect of mebendazole administration on cell lines derived from exemplary cancers was tested. One approach to determining the effectiveness of mebendazole in the treatment of cancer comprises in vitro testing. In this approach, cancer cell lines representative of the cancers of the disclosure are cultured in vitro according to standard techniques (see, for example, Human Cell Culture Protocols, Third Edition, […] R. D. Hughes, Editors, Humana Press, 2012), and increasing concentrations of mebendazole are administered to determine the IC50 value. As used herein, the term “IC50 value” refers to the concentration of a compound (for example mebendazole) wherein the response to that compound (such as inhibited cellular viability) is reduced by half. The IC50 is thus a measure of the effectiveness of a compound in inhibiting a biological process. […] Based on this biology, several rare cancer tumor cell lines including neuroblastoma, rhabdomyosarcoma and Ewing sarcoma were analyzed for sensitivity to MBZ treatment in vitro. […] In all cases, including those described below, the viable cells were determined using the CellTiter Glo® kit and an IC50 curve was generated using the PRISM software. […] FIGS. 1 and 2 show the effect of mebendazole on 3 ovarian cancer derived cell lines, A2780cis, SKOV-3 and TOV-112D at 24 hours, 48 hours and 72 hours. […] Percent cell viability is shown on the Y-axis, from 0 to 150 in units of 25. A2780cis cell data are represented by filled circles and a dotted line. SKOV-3 cell data are represented by squares and a solid line. TOV-112D cell data are represented by triangles and a dashed line. […] In FIG. 2, on the X-axis, the log concentration of mebendazole in μM, indicated from -4 to 4 in units of 2. In FIG. 2, on the Y-axis, percent viability is shown, from 0 to 125 in units of 25."}, "[1]": {"test_system": "SKOV-3 ovarian carcinoma cell line", "test": "MBZ cell viability IC50 (CellTiter Glo)", "format": "cell-based", "conditions": "Homo sapiens, SK-OV-3, 72 hours, 0-50 μM", "procedure": "as §1"}, "TOV-112D cells": {"test_system": "TOV-112D cells", "test": "MBZ cell viability IC50 (CellTiter Glo)", "format": "cell-based", "conditions": "Homo sapiens, TOV112D, 72 hours", "procedure": "as §1"}, "ACCX5M1 PDX tumors": {"test_system": "ACCX5M1 PDX tumors", "test": "ACC patient-derived xenograft (PDX) model, daily oral MBZ", "format": "in vivo, mice", "conditions": "50 or 200 mg/kg daily oral", "procedure": "(§2) The effectiveness of mebendazole can be assayed in vivo using a patient derived xenograft mouse model. In patient derived xenograft mice, cancerous cells isolated from a cancer patient are implanted into an immunodeficient mouse, and allowed to form tumors. The mice are then administered mebendazole, and the effect on tumor size and mouse viability is assayed. As xenograft cancers can be implanted from a variety of patient sources, the effectiveness of mebendazole treatment on multiple cancers can be assayed in this manner. Human cancer cell lines such as those tested in vitro can similarly be used in mouse xenograft tumor models.\n(§3) Despite a deepening understanding of the molecular events that lead to sustained tumor growth, there are currently no approved therapies for ACC. Identification of therapies for ACC has been hampered by the lack of ACC cell lines and transgenic mouse models. To circumvent these issues, the activity of MBZ was tested in several ACC patient-derived xenograft (PDX) models. Athymic nude mice were implanted subcutaneously with PDX tumors and treatment was initiated when tumors reached a size of 125-300 mm^3. Mice were randomized into three treatment groups to receive daily treatment with vehicle or MBZ at either 50 or 200 mg/kg for the duration of the study. Tumor size was measured twice weekly."}, "ACCX9 PDX tumors": {"test_system": "ACCX9 PDX tumors", "test": "ACC patient-derived xenograft (PDX) model, daily oral MBZ", "format": "in vivo, mice", "conditions": "for median survival: vehicle 29.5 days", "procedure": "as §2, §3"}, "ACCX6 PDX tumors": {"test_system": "ACCX6 PDX tumors", "test": "ACC patient-derived xenograft (PDX) model, daily oral MBZ", "format": "in vivo, mice", "conditions": "for median survival: vehicle 42 days", "procedure": "as §2, §3"}, "[2]": {"test_system": "gastric cancer primary cells isolated from patient-derived xenograft model GA3155", "test": "Ex vivo 3D assay, cell viability (Cell Titer Glo)", "format": "cell-based", "conditions": "168 h, 3D culture, seven days", "procedure": "(§4) To evaluate the efficacy of MBZ in an additional model system, an ex vivo 3D assay using gastric cancer primary cells isolated from two patient-derived xenograft models (A. GA0033 and B. GA3155) was performed. Cells were seeded in 3D cultures and treated for seven days with MBZ at nine different doses in triplicate. Cell viability was determined using Cell Titer Glo. An IC50 was established using the PRISM software."}, "[3]": {"test_system": "gastric cancer primary cells isolated from patient-derived xenograft model GA0033", "test": "Ex vivo 3D assay, cell viability (Cell Titer Glo)", "format": "cell-based", "conditions": "168 h, 3D culture, seven days", "procedure": "as §4"}, "DMS-114 cells": {"test_system": "DMS-114 cells", "test": "MBZ vs HA-PLGA-MBZ cell viability IC50 (Cell Titer Glo)", "format": "cell-based", "conditions": "Homo sapiens, 72 hour incubation", "description": "(§5) An IC50 for each treatment was established using the PRISM software."}, "COV-362 cells": {"test_system": "COV-362 cells", "test": "MBZ vs HA-PLGA-MBZ cell viability IC50 (Cell Titer Glo)", "format": "cell-based", "conditions": "COV362, 72 hour incubation", "description": "as §5"}, "PC-12 cells": {"test_system": "PC-12 cells", "test": "MBZ vs HA-PLGA-MBZ cell viability IC50 (Cell Titer Glo)", "format": "cell-based", "conditions": "Rattus norvegicus, 72 hour incubation", "description": "as §5"}, "COLO-205 cells": {"test_system": "COLO-205 cells", "test": "MBZ vs HA-PLGA-MBZ cell viability IC50 (Cell Titer Glo)", "format": "cell-based", "conditions": "Homo sapiens, 72 hour incubation", "description": "as §5"}, "SW-1271 cells": {"test_system": "SW-1271 cells", "test": "MBZ vs HA-PLGA-MBZ cell viability IC50 (Cell Titer Glo)", "format": "cell-based", "conditions": "SW1271, 72 hour incubation", "description": "as §5"}, "NCI-H295R cells": {"test_system": "NCI-H295R cells", "test": "MBZ vs HA-PLGA-MBZ cell viability IC50 (Cell Titer Glo)", "format": "cell-based", "conditions": "Homo sapiens, 72 hour incubation", "description": "as §5"}, "HCT-116 cells": {"test_system": "HCT-116 cells", "test": "MBZ vs HA-PLGA-MBZ cell viability IC50 (Cell Titer Glo)", "format": "cell-based", "conditions": "Homo sapiens, 72 hour incubation", "description": "as §5"}, "SKOV-3 cells": {"test_system": "SKOV-3 cells", "test": "MBZ vs HA-PLGA-MBZ cell viability IC50 (Cell Titer Glo)", "format": "cell-based", "conditions": "Homo sapiens, SK-OV-3, 72 hour incubation", "description": "as §5"}, "CHP-212 cells": {"test_system": "CHP-212 cells", "test": "MBZ vs HA-PLGA-MBZ cell viability IC50 (Cell Titer Glo)", "format": "cell-based", "conditions": "Homo sapiens, 72 hour incubation", "description": "as §5"}, "SNU-16 cells": {"test_system": "SNU-16 cells", "test": "MBZ vs HA-PLGA-MBZ cell viability IC50 (Cell Titer Glo)", "format": "cell-based", "conditions": "Homo sapiens, 72 hour incubation", "description": "as §5"}, "[4]": {"test_system": "multiple rare cancer tumor cell lines", "test": "MBZ alone, cell viability IC50 in rare cancer tumor cell lines (Example 3)", "format": "cell-based", "conditions": "read-out: IC50s (range over cell lines)", "procedure": "The FDA-approved anti-helminthic drug mebendazole (MBZ) has been reported to affect several biological pathways involved in tumor growth and metastasis. Based on this activity, multiple rare cancer tumor cell lines including, but not limited to, neuroblastoma, carcinoid tumors, esophageal adenocarcinoma, gastrointestinal stromal tumors, leiomyosarcoma, pheochromocytoma, and mesothelioma were analyzed for their susceptibility to MBZ treatment alone or in combination with standard chemotherapeutic agents in vitro."}, "[5]": {"test_system": "CHP-212 neuroblastoma cells", "test": "Synergy of MBZ or HA-PLGA-MBZ with chemotherapeutic agents (Chou-Talalay CI, Cell Titer Glo)", "format": "cell-based", "conditions": "CHP-212 + 4-HC", "protocol": "For in vitro experiments, cells were plated in triplicate and treated with a range of concentrations of MBZ and relevant chemotherapeutic agents in a complete Latin square.\nCells were plated in triplicate and treated with a range of 5 concentrations of MBZ in combination with 5 concentrations of chemotherapeutic agents in a complete Latin square. Following a 72 hour incubation, cell viability was determined using Cell Titer Glo.\nIn table 22 below, cells were plated in triplicate and treated with a range of 5 concentrations of MBZ or HA-PLGA-MBZ nanoparticles containing a molar equivalent of MBZ, and 5 concentrations of relevant chemotherapeutic agents in a complete Latin square. Combination indexes (CI) were determined based on the method described by Chou-Talalay with a CI value less than 0.9 indicating synergy. […] Numbers in parentheses represent the range of synergistic CI values for each cell line and drug combination."}, "[6]": {"conditions": "both the 50 and 200 mg/kg dose levels"}},
  "data": [
    {"smiles": "COC(=O)Nc1nc2ccc(C(=O)c3ccccc3)cc2[nH]1", "note": "[MBZ, methyl N-(6-benzoyl-1H-benzimidazol-2-yl)carbamate]", "values": [
      {"measurement": "IC50", "setting": "A2780cis cells", "value": 250, "unit": "nM"},
      {"measurement": "IC50", "setting": "[1]", "value": "~4400", "unit": "nM"},
      {"measurement": "IC50", "setting": "TOV-112D cells", "value": 200, "unit": "nM"},
      {"measurement": "tumor growth", "setting": "ACCX5M1 PDX tumors", "value": "did not inhibit tumor growth"},
      {"measurement": "median survival", "setting": "ACCX9 PDX tumors; 50 mg/kg daily oral, not statistically significant", "value": 33, "unit": "days"},
      {"measurement": "tumor volume", "setting": "ACCX9 PDX tumors; 200 mg/kg", "value": "decrease in tumor volume"},
      {"measurement": "median survival", "setting": "ACCX9 PDX tumors; 200 mg/kg daily oral", "value": 38, "unit": "days"},
      {"measurement": "anti-tumor activity", "setting": "ACCX9 PDX tumors; highest dose of 200 mg/kg", "value": "statistically significant anti-tumor activity"},
      {"measurement": "median survival", "setting": "ACCX6 PDX tumors; 50 mg/kg daily oral", "value": 95.5, "unit": "days"},
      {"measurement": "median survival", "setting": "ACCX6 PDX tumors; 200 mg/kg daily oral", "value": 64.5, "unit": "days"},
      {"measurement": "tumor growth compared to vehicle", "setting": "ACCX6 PDX tumors; [6]", "value": "Inhibition of tumor growth"},
      {"measurement": "tumor volume", "setting": "ACCX6 PDX tumors; [6]", "value": "decrease in tumor volume"},
      {"measurement": "IC50", "setting": "[2]", "value": 760, "unit": "nM"},
      {"measurement": "IC50", "setting": "[3]", "value": 740, "unit": "nM"},
      {"measurement": "IC50", "setting": "DMS-114 cells", "value": 800, "unit": "nM"},
      {"measurement": "IC50", "setting": "COV-362 cells", "value": 330, "unit": "nM"},
      {"measurement": "IC50", "setting": "PC-12 cells", "value": 1030, "unit": "nM"},
      {"measurement": "IC50", "setting": "COLO-205 cells", "value": 270, "unit": "nM"},
      {"measurement": "IC50", "setting": "SW-1271 cells", "value": "> 50000", "unit": "nM"},
      {"measurement": "IC50", "setting": "NCI-H295R cells", "value": 330, "unit": "nM"},
      {"measurement": "IC50", "setting": "HCT-116 cells", "value": 320, "unit": "nM"},
      {"measurement": "IC50", "setting": "SKOV-3 cells", "value": 680, "unit": "nM"},
      {"measurement": "IC50", "setting": "CHP-212 cells", "value": 130, "unit": "nM"},
      {"measurement": "IC50", "setting": "SNU-16 cells", "value": 110, "unit": "nM"},
      {"measurement": "IC50", "setting": "[4]", "value": "90 to 2200", "unit": "nM"},
      {"measurement": "range of synergistic CI values", "setting": "[5]", "value": "0.569-0.860"}
    ]}
  ]
}
